Measurements as given in ChEMBL document CHEMBL3352811, “Novel pyrazoline derivatives as bi-inhibitor of COX-2 and B-Raf in treating cervical carcinoma” (Bioorg Med Chem, 2014).

Assays:
[1] = Antiproliferative activity against human WM266.4 cells after 24 hrs by MTT assay; format: functional; details: WM 266-4, 24 h
[2] = Inhibition of mouse B-Raf V600E mutant assessed as as reduction in human N-terminal His-tagged MEK1 phosphorylation pre-incubated with compound for 1 hr
HeLa = assay: Antiproliferative activity against human HeLa cells after 24 hrs by MTT assay; format: functional
[3] = target: Prostaglandin G/H synthase 1 (Homo sapiens, UniProt P23219); assay: Inhibition of COX1 (unknown origin) by solid phase ELISA method
Sequence of Prostaglandin G/H synthase 1 (P23219 whole entry): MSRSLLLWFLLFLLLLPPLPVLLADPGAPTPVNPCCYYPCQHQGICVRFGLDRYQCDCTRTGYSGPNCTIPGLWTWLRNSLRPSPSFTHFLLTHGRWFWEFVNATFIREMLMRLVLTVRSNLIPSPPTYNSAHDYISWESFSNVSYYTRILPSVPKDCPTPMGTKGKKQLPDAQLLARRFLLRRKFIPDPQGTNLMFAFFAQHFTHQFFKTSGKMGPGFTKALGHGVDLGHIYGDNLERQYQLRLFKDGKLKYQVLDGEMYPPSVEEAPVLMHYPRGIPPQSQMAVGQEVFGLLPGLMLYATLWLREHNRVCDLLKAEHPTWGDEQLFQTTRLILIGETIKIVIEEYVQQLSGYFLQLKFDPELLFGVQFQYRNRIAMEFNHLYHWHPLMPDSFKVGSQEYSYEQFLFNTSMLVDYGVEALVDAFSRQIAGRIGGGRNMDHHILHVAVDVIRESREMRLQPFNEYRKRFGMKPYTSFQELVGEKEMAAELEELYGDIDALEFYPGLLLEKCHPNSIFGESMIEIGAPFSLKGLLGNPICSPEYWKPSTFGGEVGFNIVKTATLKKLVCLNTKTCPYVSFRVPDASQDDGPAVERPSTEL

Homo sapiens = species: Homo sapiens; assay: Selectivity index, ratio of IC50 for COX1 (unknown origin) to IC50 for COX2 (unknown origin)
[4] = target: T1, Prostaglandin G/H synthase 2 (Homo sapiens, UniProt P35354); assay: Inhibition of COX2 (unknown origin) by solid phase ELISA method
T1 sequence (P35354 whole entry): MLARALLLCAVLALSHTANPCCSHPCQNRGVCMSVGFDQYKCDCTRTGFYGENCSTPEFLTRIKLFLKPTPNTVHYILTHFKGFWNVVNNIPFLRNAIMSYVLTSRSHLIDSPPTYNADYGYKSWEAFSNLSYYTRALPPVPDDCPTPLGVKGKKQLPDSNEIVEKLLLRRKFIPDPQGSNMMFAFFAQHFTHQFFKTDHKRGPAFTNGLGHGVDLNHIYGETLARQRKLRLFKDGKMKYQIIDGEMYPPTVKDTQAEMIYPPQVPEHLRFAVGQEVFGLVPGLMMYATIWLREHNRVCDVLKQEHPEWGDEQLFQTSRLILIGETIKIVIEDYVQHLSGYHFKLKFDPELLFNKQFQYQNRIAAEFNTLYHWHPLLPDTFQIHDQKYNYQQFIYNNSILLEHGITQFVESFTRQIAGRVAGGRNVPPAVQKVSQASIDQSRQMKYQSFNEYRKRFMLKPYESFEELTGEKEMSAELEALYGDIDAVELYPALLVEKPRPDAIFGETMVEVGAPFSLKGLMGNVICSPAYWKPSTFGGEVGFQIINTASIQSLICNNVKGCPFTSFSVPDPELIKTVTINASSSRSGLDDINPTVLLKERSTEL

Compound	GI50 [1]	IC50 [2]	GI50 (HeLa)	IC50 [3]	Ratio IC50 (Homo sapiens)	IC50 [4]
NS(=O)(=O)c1ccc(N2N=C(C(F)(F)F)CC2c2cccc3ccccc23)cc1 (stereo not given)	8.91 µM	8.23 µM	29.5 µM	17 µM		
O=S(=O)(c1ccccc1)N1N=C(C(F)(F)F)CC1c1ccc2c(c1)OCO2 (stereo not given)	1.63 µM	2.41 µM	34.6 µM	14.1 µM	2.5	
CS(=O)(=O)c1ccc(N2N=C(C(F)(F)F)CC2c2ccc3c(c2)OCO3)cc1 (stereo not given)	0.89 µM	0.49 µM	27.6 µM	57.5 µM	411	
NS(=O)(=O)c1ccc(N2N=C(C(F)(F)F)CC2c2ccc3c(c2)OCCO3)cc1 (stereo not given)	132 µM	17 µM	19.9 µM	41.5 µM	> 500	
Cc1ccc(S(=O)(=O)N2N=C(C(F)(F)F)CC2c2ccc3ccccc3c2)cc1 (stereo not given)	1.01 µM	0.85 µM	> 500 µM	> 500 µM	10.7	
NS(=O)(=O)c1ccc(N2N=C(C(F)(F)F)CC2c2cccc3c2OCO3)cc1 (stereo not given)	1.32 µM	1.77 µM	26.2 µM	10 µM	197	
O=S(=O)(c1ccccc1)N1N=C(C(F)(F)F)CC1c1ccc2c(c1)OCCO2 (stereo not given)	> 500 µM	> 100 µM	58.9 µM	106 µM	54	
NS(=O)(=O)c1ccc(N2N=C(C(F)(F)F)CC2c2cccc3c2OCCO3)cc1 (stereo not given)	0.82 µM	0.15 µM	26 µM	34.5 µM	> 500	
CS(=O)(=O)c1ccc(N2N=C(C(F)(F)F)CC2c2cccc3ccccc23)cc1 (stereo not given)	10.6 µM	8.53 µM	33.3 µM	15.2 µM		
Cc1ccc(S(=O)(=O)N2N=C(C(F)(F)F)CC2c2ccc3c(c2)OCCO3)cc1 (stereo not given)	0.83 µM	0.25 µM	24.8 µM	4.63 µM	3.5	
O=S(=O)(c1ccccc1)N1N=C(C(F)(F)F)CC1c1cccc2c1OCO2 (stereo not given)	13.6 µM	9.46 µM	> 500 µM	8.75 µM	0.14	
O=S(=O)(c1ccccc1)N1N=C(C(F)(F)F)CC1c1ccc2ccccc2c1 (stereo not given)	> 500 µM	> 100 µM	> 500 µM	7.23 µM	0.04	174 µM
Cc1ccc(S(=O)(=O)N2N=C(C(F)(F)F)CC2c2cccc3c2OCCO3)cc1 (stereo not given)	1.34 µM	1.74 µM	> 500 µM	15.4 µM	0.01	> 500 µM
CS(=O)(=O)c1ccc(N2N=C(C(F)(F)F)CC2c2cccc3c2OCCO3)cc1 (stereo not given)	0.76 µM	0.12 µM	26 µM	40.6 µM		
Cc1ccc(S(=O)(=O)N2N=C(C(F)(F)F)CC2c2cccc3ccccc23)cc1 (stereo not given)	1.06 µM	1.01 µM	> 500 µM	153 µM	1.7	
CS(=O)(=O)c1ccc(N2N=C(C(F)(F)F)CC2c2cccc3c2OCO3)cc1 (stereo not given)	16.8 µM	9.86 µM	38.6 µM	10.8 µM	269	
NS(=O)(=O)c1ccc(N2N=C(C(F)(F)F)CC2c2ccc3ccccc3c2)cc1 (stereo not given)	1.09 µM	1.15 µM	49.8 µM	19 µM	1.3	
CS(=O)(=O)c1ccc(N2N=C(C(F)(F)F)CC2c2ccc3ccccc3c2)cc1 (stereo not given)	0.97 µM	0.67 µM	63.6 µM	38.7 µM	2.2	
O=S(=O)(c1ccccc1)N1N=C(C(F)(F)F)CC1c1cccc2ccccc12 (stereo not given)	1.18 µM	1.24 µM	> 500 µM	17.6 µM	0.26	
Cc1ccc(S(=O)(=O)N2N=C(C(F)(F)F)CC2c2ccc3c(c2)OCO3)cc1 (stereo not given)	1.63 µM	2.26 µM	28.7 µM	3.72 µM	7	
CCCS(=O)(=O)Nc1ccc(F)c(C(=O)c2c[nH]c3ncc(-c4ccc(Cl)cc4)cc23)c1F [VEMURAFENIB]		0.06 µM				
CS(=O)(=O)c1ccc(N2N=C(C(F)(F)F)CC2c2ccc3c(c2)OCCO3)cc1 (stereo not given)	1.12 µM	0.89 µM	23.5 µM	64.9 µM	270	
O=c1[nH]cc(F)c(=O)[nH]1 [FLUOROURACIL]	28.8 µM		30.2 µM			
O=S(=O)(c1ccccc1)N1N=C(C(F)(F)F)CC1c1cccc2c1OCCO2 (stereo not given)	3.87 µM	5.24 µM	127 µM	100 µM	3.7	
Cc1ccc(S(=O)(=O)N2N=C(C(F)(F)F)CC2c2cccc3c2OCO3)cc1 (stereo not given)	1.08 µM	1.11 µM	> 500 µM	10.4 µM		
NS(=O)(=O)c1ccc(N2N=C(C(F)(F)F)CC2c2ccc3c(c2)OCO3)cc1 (stereo not given)	2.47 µM	3.84 µM		19 µM	> 500	
